Measurements reported in publication PMC4890880 (ACS infectious diseases, 2016).
pIC50: −log10 of the molar value. Where two headings read alike, the source gives them in different places.

Experiments:
HepG2-A16-CD81EGFP cells = details: for pIC50: read-out: Tox_IC50, HepG2 cytotoxicity
[1] = test system: Plasmodium berghei (Pb-Luc) exoerythrocytic-stage parasites; details: for pIC50: read-out: PbLuc_IC50
[2] = 2nd round, maximal inhibition in dose series
[3] = sheet 2nd round, maximal inhibition in dose response
[4] = first series, fraction of control
[5] = second series, fraction of control

For C[C@@H]1CN([C@H](C)CO)C(=O)c2ccccc2-c2ccccc2CO[C@H]1CN(C)C(=O)[C@H](Cc1ccccc1)N(C)C [BRD-K75961033-001-01-7], the “Tox_max_inhibition (%)” value (HepG2-A16-CD81EGFP cells; [2]) was 5.71%, the pIC50 (HepG2-A16-CD81EGFP cells; 2nd round, unit inferred) was less than 5.00 and the “PbLuc_max_inhibition (%)” value [1, 2] was 45%. For the same compound, the “normalized signal at 0.000508053 (first series)” value ([1]; concentration 0.000508053, first replicate series, fraction of control) was 1.06, the “normalized signal at 0.000508053 (second series)” value ([1]; concentration 0.000508053, second replicate series, fraction of control) was 0.8091 and the “normalized signal at 0.00152416 (first series)” value ([1]; concentration 0.00152416, first replicate series, fraction of control) was 0.9571. The “normalized signal at 0.00152416 (second series)” value ([1]; concentration 0.00152416, second replicate series, fraction of control) was 0.6896, the “normalized signal at 0.00457247 (first series)” value ([1]; concentration 0.00457247, first replicate series, fraction of control) was 0.9675 and the “normalized signal at 0.00457247 (second series)” value ([1]; concentration 0.00457247, second replicate series, fraction of control) was 0.699. For the same compound, the “normalized signal at 0.0137174 (first series)” value ([1]; concentration 0.0137174, first replicate series, fraction of control) was 1.117, the “normalized signal at 0.0137174 (second series)” value ([1]; concentration 0.0137174, second replicate series, fraction of control) was 0.795 and the “normalized signal at 0.0411523 (first series)” value ([1]; concentration 0.0411523, first replicate series, fraction of control) was 0.9735. The “normalized signal at 0.0411523 (second series)” value ([1]; concentration 0.0411523, second replicate series, fraction of control) was 0.8267, the “normalized signal at 0.123457 (first series)” value ([1]; concentration 0.123457, first replicate series, fraction of control) was 0.9249 and the “normalized signal at 0.123457 (second series)” value ([1]; concentration 0.123457, second replicate series, fraction of control) was 0.6648. For the same compound, the “normalized signal at 0.37037 (first series)” value ([1]; concentration 0.37037, first replicate series, fraction of control) was 0.9974, the “normalized signal at 0.37037 (second series)” value ([1]; concentration 0.37037, second replicate series, fraction of control) was 0.9501 and the “normalized signal at 1.11111 (first series)” value ([1]; concentration 1.11111, first replicate series, fraction of control) was 1.014. The “normalized signal at 1.11111 (second series)” value ([1]; concentration 1.11111, second replicate series, fraction of control) was 0.8135, the “normalized signal at 3.33333 (first series)” value ([1]; concentration 3.33333, first replicate series, fraction of control) was 0.9327 and the “normalized signal at 3.33333 (second series)” value ([1]; concentration 3.33333, second replicate series, fraction of control) was 0.5506. For the same compound, the “normalized signal at 10 (first series)” value ([1]; concentration 10, first replicate series, fraction of control) was 0.7489, the “normalized signal at 10 (second series)” value ([1]; concentration 10, second replicate series, fraction of control) was 0.6892 and the pIC50 ([1]; 2nd round, Broad DOS compounds, unit not printed (dose series head 10 to 0.000508053)) was less than 5.00.

With C[C@@H]1CCCCO[C@@H](CN(C)S(=O)(=O)c2ccc(F)cc2)[C@H](C)CN([C@@H](C)CO)C(=O)c2cc(N(C)C)ccc2O1 [BRD-K44445002-001-01-6] the pIC50 (HepG2-A16-CD81EGFP cells; sheet "2nd round") was less than 5.00, the “Tox_max_inhibition (%)” value (HepG2-A16-CD81EGFP cells; sheet "2nd round") was 2% and the “normalised signal at concentration 0.000508053 (first series)” value ([1]; concentration 0.000508053, first series) was 0.8297. For the same compound, the “normalised signal at concentration 0.000508053 (second series)” value ([1]; concentration 0.000508053, second series) was 0.9522, the “normalised signal at concentration 0.00152416 (first series)” value ([1]; concentration 0.00152416, first series) was 0.9815 and the “normalised signal at concentration 0.00152416 (second series)” value ([1]; concentration 0.00152416, second series) was 1.174. The “normalised signal at concentration 0.00457247 (first series)” value ([1]; concentration 0.00457247, first series) was 0.6933, the “normalised signal at concentration 0.00457247 (second series)” value ([1]; concentration 0.00457247, second series) was 0.8769 and the “normalised signal at concentration 0.0137174 (first series)” value ([1]; concentration 0.0137174, first series) was 0.8541. The “normalised signal at concentration 0.0137174 (second series)” value ([1]; concentration 0.0137174, second series) was 1.037, the “normalised signal at concentration 0.0411523 (first series)” value ([1]; concentration 0.0411523, first series) was 1.012 and the “normalised signal at concentration 0.0411523 (second series)” value ([1]; concentration 0.0411523, second series) was 1.038. For the same compound, the “normalised signal at concentration 0.123457 (first series)” value ([1]; concentration 0.123457, first series) was 1.095, the “normalised signal at concentration 0.123457 (second series)” value ([1]; concentration 0.123457, second series) was 0.8137 and the “normalised signal at concentration 0.37037 (first series)” value ([1]; concentration 0.37037, first series) was 0.8834. For the same compound, the “normalised signal at concentration 0.37037 (second series)” value ([1]; concentration 0.37037, second series) was 0.9753, the “normalised signal at concentration 1.11111 (first series)” value ([1]; concentration 1.11111, first series) was 1.034 and the “normalised signal at concentration 1.11111 (second series)” value ([1]; concentration 1.11111, second series) was 0.8748. For the same compound, the “normalised signal at concentration 3.33333 (first series)” value ([1]; concentration 3.33333, first series) was 0.858, the “normalised signal at concentration 3.33333 (second series)” value ([1]; concentration 3.33333, second series) was 0.7361 and the “normalised signal at concentration 10 (first series)” value ([1]; concentration 10, first series of dose columns) was 0.7308. The “normalised signal at concentration 10 (second series)” value ([1]; concentration 10, second series of dose columns) was 0.7674, the pIC50 ([1]; sheet "2nd round", Broad compounds, dose response top concentration 10) was less than 5.00 and the “PbLuc_max_inhibition (%)” value ([1]; sheet "2nd round") was 31%.

C[C@H](CO)N1C[C@H](C)[C@@H](CN(C)C(=O)Nc2ccc(C(F)(F)F)cc2)Oc2c(NC(=O)c3ccc(-c4nccs4)cc3)cccc2C1=O [BRD-K70940716-001-01-0] was tested, and the pIC50 (HepG2-A16-CD81EGFP cells; sheet 2nd round) was less than 5.00, the “Tox_max_inhibition (%)” value (HepG2-A16-CD81EGFP cells; [3]) was 7% and the “normalized signal at concentration 10” value ([1]; first series of dose-response columns, fraction of control) was 1.176. For the same compound, the “normalized signal at concentration 0.000508053” value [1, 4] was 0.7879, the “normalized signal at concentration 0.00152416” value [1, 4] was 0.8471 and the “normalized signal at concentration 0.00457247” value [1, 4] was 0.871. For the same compound, the “normalized signal at concentration 0.0137174” value [1, 4] was 0.8913, the “normalized signal at concentration 0.0411523” value [1, 4] was 0.831 and the “normalized signal at concentration 0.123457” value [1, 4] was 0.9514. The “normalized signal at concentration 0.37037” value [1, 4] was 0.8506, the “normalized signal at concentration 1.11111” value [1, 4] was 0.9296 and the “normalized signal at concentration 3.33333” value [1, 4] was 1.136. For the same compound, the pIC50 ([1]; sheet 2nd round, Broad compounds, dose response) was less than 5.00, the “normalized signal at concentration 10” value ([1]; second series of dose-response columns, fraction of control) was 1.096 and the “normalized signal at concentration 0.000508053” value [1, 5] was 1.058. The “normalized signal at concentration 0.00152416” value [1, 5] was 0.9924, the “normalized signal at concentration 0.00457247” value [1, 5] was 0.8277 and the “normalized signal at concentration 0.0137174” value [1, 5] was 1.075. The “normalized signal at concentration 0.0411523” value [1, 5] was 1.139, the “normalized signal at concentration 0.123457” value [1, 5] was 0.9792 and the “normalized signal at concentration 0.37037” value [1, 5] was 1.201. For the same compound, the “normalized signal at concentration 1.11111” value [1, 5] was 1.005, the “normalized signal at concentration 3.33333” value [1, 5] was 1.1649 and the “PbLuc_max_inhibition (%)” value [1, 3] was 21%.
